Assay results: patent US7179825B2, “Retinoic acid mimetic anilides” (Janssen Pharmaceutica N.V., priority 1997, dated 2007)

Legend:
[1] = system: Ovariectomized rats; test: Vaginal keratinization test on ovariectomized rats (Example C.2); type: in vivo; conditions: estradiol undecylate induced keratinization, per os once daily on days 1-3, active dose = 50% of rats show complete suppression
Outline: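 Value is the lowest oral dose (mg/kg) at which half of tested rats show complete suppression of estradiol undecylate-induced vaginal keratinization by histology. Ovariectomized rats received 100 μg/100 g estradiol undecylate s.c., then compound or PEG 200 vehicle p.o. daily for three days; sacrifice one day later.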

[2] = system: metabolism of retinoic acid in human breast cancer cells; test: Inhibition of retinoic acid (RA) metabolism (Example C.1); type: cell-based; conditions: MCF-7 human breast cancer cells, 3H-RA as substrate, concentration needed to reduce the amount of metabolites to 50% of the control
Source text: The property to delay the metabolism of retinoic acid can be evidenced in various in vitro and in vivo experiments. A particular in vitro procedure is described in example C.1 and tests the inhibitory activity of the compounds of formula (I) on the metabolism of retinoic acid in human breast cancer cells. The compounds of the present invention were also effective in suppressing induced vaginal keratinization effects in ovariectomized rats as is described in example C.2.
Inhibition of Retinoic Acid (RA) Metabolism
MCF-7 human breast cancer cells were grown as stock cultures according to art-known protocols. One day before the experiment, RA is added to the stock cultures to stimulate RA-metabolism. At the start of the experiment, cell suspensions were incubated in a tissue culture medium containing ^3H-RA as the substrate. Different concentrations of the test compound (dissolved in 1% DMSO) were added to the incubation mixtures, and at the end of the incubation, the unmetabolized RA is separated from its polar metabolites. The fraction containing the polar ^3H-labelled metabolites was collected and counted in a scintillation counter. For each experiment, a control and a blank incubation were run in parallel. Table 22 list the IC50 value (defined as the concentration in M needed to reduce the amount of metabolites to 50% of the control).

SMILES	IC50 [2]	further results
CCC(CC)C(c1ccc(NC(=O)Nc2ccccc2F)cc1)n1ccnc1 (racemic) [Compound 713]	1.38 nM	LAD (lowest active dose) [1]: 2.50 mg/kg
CC(C)C(c1ccc(NC(=O)Cc2ccc(Cl)cc2)cc1)(C(C)C)n1cncn1 [Compound 745]	3.87 nM	LAD (lowest active dose) [1]: >5.00 mg/kg
C/C(=C\c1ccc(N)cc1)C(=O)Nc1ccc(C(C(C)C)n2ccnc2)cc1 (racemic) [Compound 611, (±)-(E)-2-[(4-aminophenyl)methylene]-N-[4-[1-(1H-imidazol-1-yl)-2-methylpropyl]phenyl]propanamide]	–	minimal effective dose ([1]; Rattus norvegicus, po, read-out: LAD (lowest active dose)): 10 mg/kg; IC50 ([2]; MCF7): 3.42 nM
CC(C)C(c1ccc(NC(=O)c2ccccn2)cc1)n1ccnc1 (racemic) [Compound 208]	6.43 nM	LAD (lowest active dose) [1]: >10.00 mg/kg
CC(C)C(c1ccc(NC(=O)Cc2ccc(Cl)c(Cl)c2)cc1)n1ccnc1 (centres unmarked) [Compound 143]	4.08 nM	LAD (lowest active dose) [1]: 10.00 mg/kg
CC(C)C(c1ccncc1)c1ccc(NC(=O)Nc2cccc(F)c2)cc1 (racemic) [Compound 692]	38 nM	LAD (lowest active dose) [1]: >10.00 mg/kg
CC(=O)Nc1ccc(C(c2cccc(F)c2)n2cncn2)cc1 (centres unmarked) [Compound 616]	> 1000 nM	–
CCC(CC)C(c1ccc(NC(=O)Cc2ccc(OCc3ccccn3)cc2)cc1)n1ccnc1 (racemic) [Compound 121]	0.914 nM	LAD (lowest active dose) [1]: >2.50 mg/kg
CCC(CC)C(c1ccc(NC(=O)C(O)c2ccc(Cl)cc2)cc1)n1cncn1 (racemic) [Compound 17, (±)-A1-4-chloro-N-[4-[2-ethyl-1-(1H-1,2,4-triazol-1-yl)butyl]phenyl]-α-hydroxybenzeneacetamide]	0.999 nM	–
C/C(=C\c1ccccc1)C(=O)Nc1ccc(C(c2ccc3c(c2)C(C)(C)CCC3(C)C)n2ccnc2)cc1 (racemic) [Compound 491]	1.84 nM	–
CC(C)C(c1ccc(NC(=N)Nc2cccc(F)c2)cc1)n1ccnc1 (centres unmarked) [Compound 744, N′-(3-fluorophenyl)-N-[4-[1-(1H-imidazol-1-yl)-2-methylpropyl]phenyl]guanidine]	–	IC50 ([2]; MCF7): > 100 nM
CCC(CC)C(c1ccc(NC(=O)Cc2cccc(O)c2)cc1)n1ccnc1 (centres unmarked) [Compound 780, (A)-N-[4-[2-ethyl-1-(1H-imidazol-1-yl)butyl]phenyl]-3-hydroxybenzeneacetamide ethanedioate (1:1)]	4.57 nM	–
CC(C)C(c1ccc(NC(N)=S)cc1)n1ccnc1 (racemic) [Compound 699, (±)-4-[1-(1H-imidazol-1-yl)-2-methylpropyl]phenylthiourea]	–	IC50 ([2]; MCF7): 9.69 nM
CCC(C(c1ccc(NC(=O)Cc2ccc(OC)c(OC)c2)cc1)n1ccnc1)N(C)C (single isomer, unassigned) [Compound 388]	0.829 nM	–
CC(C)C(c1ccc(NC(=O)Cc2ccc(N=[N+]=[N-])c(I)c2)cc1)n1ccnc1 (centres unmarked) [Compound 259, (B)-4-azido-N-[4-[1-(1H-imidazol-1-yl)-2-methylpropyl]phenyl]-3-iodobenzenacetamide]	9.29 nM	–
CCC(CC)C(c1ccc(NC(=O)Cc2cc(C)ccc2O)cc1)n1ccnc1 (racemic) [Compound 124]	0.0397 nM	–

SMILES	IC50 [2]	further results
O=C(C=C(c1ccccc1)c1cccnc1)Nc1ccc(C(c2ccc(F)cc2)n2ccnc2)cc1 (racemic) [Compound 517]	36.9 nM	–
COc1ccc(CCCC(=O)Nc2ccc(C(C(C)N(C)C)n3ccnc3)cc2)cc1OC (single isomer, unassigned) [Compound 336]	1.91 nM	–
C/C(=C\c1ccccc1)C(=O)Nc1ccc(C(c2cccc(F)c2)n2cncn2)cc1 (centres unmarked) [Compound 620]	> 1000 nM	–
CC(C)C(c1ccncc1)c1ccc(NC(=O)Cc2ccc(Cl)cc2)cc1 (racemic) [Compound 685]	90.8 nM	–
CCC(CC)C(c1ccc(NC(=O)Cc2cc(OC)cc(OC)c2)cc1)n1ccnc1 (racemic) [Compound 119]	0.94 nM	–
Cc1cncn1C(c1ccc(Cl)cc1)c1ccc(NC(=O)C=C(c2ccccc2)c2cccc(Cl)c2)cc1 (mixture of isomers) [Compound 693]	> 100 nM	–
CC(C)C(c1ccc(NC(=O)Cc2ccc(N)cc2)cc1)n1ccnc1 (single isomer, unassigned) [Compound 147]	33 nM	–
CCC(CC)C(c1ccc(NC(=O)Cc2cc(OC)ccc2OCc2ccccc2)cc1)n1ccnc1 (racemic) [Compound 120]	3.88 nM	–
CCCCCC(C)C(c1ccc(NC(=O)/C(C)=C/c2ccccc2)cc1)n1ccnc1 (single isomer, unassigned) [Compound 488]	> 100 nM	–
COc1ccc(CC(=O)Nc2ccc(C(C(C)N(C)C)n3ccnc3)cc2)cc1Cl (single isomer, unassigned) [Compound 305]	0.0829 nM	–
O=C(C=C(c1ccccc1)c1cccnc1)Nc1ccc(C(c2ccc(Cl)cc2)n2ccnc2)cc1 (racemic) [Compound 516]	> 1000 nM	–
CC(C)C(c1ccc(NC(=O)Cc2ccc(N=[N+]=[N-])c(I)c2)cc1)n1ccnc1 (single isomer, unassigned) [Compound 260]	2.43 nM	–
CCOC(=O)CC(c1ccc(NC(C)=O)cc1)n1ccnc1 (centres unmarked) [Compound 560]	–	LAD (lowest active dose) [1]: >5.00 mg/kg
CCCC(C)C(c1ccc(NC(=O)Cc2ccc(Cl)cc2)cc1)n1cncn1 (racemic) [Compound 638]	–	LAD (lowest active dose) [1]: >2.50 mg/kg
COc1ccccc1OCC(=O)Nc1ccc(C(C(C)N(C)C)n2ccnc2)cc1 (single isomer, unassigned) [Compound 350]	–	LAD (lowest active dose) [1]: >2.50 mg/kg

Second part, led by results:

IC50 [2]	SMILES	further results
2.89 nM	C/C(=C\c1ccccn1)C(=O)Nc1ccc(C(C(C)C)n2ccnc2)cc1 (racemic) [Compound 604]	LAD (lowest active dose) [1]: >10.00 mg/kg
> 100 nM	O=C(Nc1ccc(C(c2ccc(Cl)cc2)n2ccnc2)cc1)Nc1cccc(F)c1 (racemic) [Compound 731]	–
2.12 nM	CCC(CC)C(c1ccc(NC(=O)C2CCN(C(=O)OC(C)(C)C)CC2)cc1)n1ccnc1 (racemic) [Compound 53]	LAD (lowest active dose) [1]: >2.50 mg/kg
3.93 nM	CC(C)C(c1ccc(NC(=O)Cc2cccnc2)cc1)n1ccnc1 (centres unmarked) [Compound 251]	LAD (lowest active dose) [1]: 10.00 mg/kg
0.417 nM	CCOc1ccc(CC(=O)Nc2ccc(C(C(CC)CC)n3cncn3)cc2)cc1Cl (racemic) [Compound 75]	LAD (lowest active dose) [1]: 2.50 mg/kg
1.14 nM	Cc1cc(CC(=O)Nc2ccc(C(C(C)N(C)C)n3cncn3)cc2)cc(C)c1C (single isomer, unassigned) [Compound 290]	LAD (lowest active dose) [1]: 2.50 mg/kg
3.03 nM	CC(C)C(c1ccc(NC(=O)Cc2ccc(N)cc2)cc1)n1ccnc1 (centres unmarked) [Compound 145, (A)-4-amino-N-[4-[1-(1H-imidazol-1-yl)-2-methylpropyl]phenyl]benzeneacetamide]	–
0.772 nM	CC(C(c1ccc(NC(=O)Cc2ccc(O)c(Cl)c2)cc1)n1cncn1)N(C)C (mixture of isomers) [Compound 299]	–
> 100 nM	CC(C)C(c1ccc(NC(=O)Cc2ccc(Cl)cc2)cc1)c1ccccn1 (racemic) [Compound 687]	–
0.0365 nM	CCC(CC)C(c1ccc(NC(=O)COc2ccccc2OC)cc1)n1cncn1 (racemic) [Compound 12]	–
4.35 nM	CCC(c1ccc(NC(=O)Cc2ccc(Cl)cc2)cc1)(C(C)C)n1ccnc1 (racemic) [Compound 755]	–
3.24 nM	CCC(CC)C(c1ccc(NC(=O)Cc2cccc(O)c2)cc1)n1ccnc1 (centres unmarked) [Compound 781, (B)-N-[4-[2-ethyl-1-(1H-imidazol-1-yl)butyl]phenyl]-3-hydroxy-benzeneacetamide ethanedioate (1:1)]	–
0.895 nM	CCC(CC)C(c1ccc(NC(=O)Cc2ccc(OC)nc2)cc1)n1ccnc1 (racemic) [Compound 51]	–
> 100 nM	CC(C)C(c1ccc(NC(=O)Nc2cccc(F)c2)cc1)c1ccccn1 (centres unmarked) [Compound 691]	–
4.86 nM	CCC(CC)C(c1ccc(NC(=O)C(O)c2ccc(Cl)cc2)cc1)n1ccnc1 (centres unmarked) [Compound 54]	–
0.138 nM	CCC(CC)C(c1ccc(NC(C)=O)cc1)n1cncn1 (centres unmarked) [Compound 1]	–
16.9 nM	Cc1ccoc1C(=O)Nc1ccc(C(C(C)C)n2ccnc2)cc1 (racemic) [Compound 226]	–
0.0234 nM	CCC(CC)C(c1ccc(NC(=O)Cc2ccc(OC)c(O)c2)cc1)n1ccnc1 (racemic) [Compound 108]	–
2.64 nM	COc1ccc(CC(=O)Nc2ccc(C(C(C)N(C)CCc3ccccc3)n3ccnc3)cc2)cc1OC (mixture of isomers) [Compound 415]	–
151 nM	O=C(/C=C/c1ccccc1)Nc1ccc(C(c2cccc(C(F)(F)F)c2)n2cncn2)cc1 (racemic) [Compound 617]	–
82.8 nM	Cc1cnc(C(=O)Nc2ccc(C(C(C)C)n3ccnc3)cc2)cn1 (racemic) [Compound 225]	–
3.26 nM	CC(C(c1ccc(NC(=O)Cc2ccc(O)c(Cl)c2)cc1)n1ccnc1)N(C)C (single isomer, unassigned) [Compound 303]	–
